Results as given in PMC9157728, “Albumin Binder–Conjugated Fibroblast Activation Protein Inhibitor Radiopharmaceuticals for Cancer Therapy” (Journal of Nuclear Medicine, 2022).

How the values were obtained:
[1] = Stability in vitro in saline and human serum (radio-HPLC); assay type: in vitro ADME; conditions: 7 d
Description: The radiolabeling of ^68Ga, ^86Y, and ^177Lu was performed by incubation with 50 nmol of precursor at pH 4.5–5.0 at 90°C for 10 min. The product was purified by C18 column extraction, and the radiochemical purity was determined by high-performance liquid chromatography equipped with a radioactivity detector. The stability of ^177Lu-TEFAPI-06 and ^177Lu-TEFAPI-07 in saline and human serum was monitored from 2 to 168 h using radio–high-performance liquid chromatography ([13]). More details about the radiochemistry, the quality control testing, and the stability assay can be found in the supplemental materials (section 3).

[2] = system: pancreatic cancer PDX tumors; assay: SPECT imaging in pancreatic cancer PDX-bearing mice; assay type: in vivo; conditions: for tumor uptake at 6 d after injection (SPECT imaging and biodistribution): 6 d after the injection; for tumor-to-nontargeted-tissue signal ratios on SPECT: PDX tumor models, until 144 h after injection
Description: SPECT scans were performed on a Mediso nanoSPECT/CT imaging system. ^177Lu-TEFAPI-06 or ^177Lu-TEFAPI-07 SPECT imaging was performed on pancreatic cancer PDX–bearing mice at the indicated time points after intravenous injection of 37 MBq of ^177Lu-TEFAPI-06 or ^177Lu-TEFAPI-07, respectively.

[3] = Ex vivo biodistribution study in PDX-bearing mice
Description: PDX-bearing mice were injected with 925.0 kBq of ^177Lu-TEFAPI-06 or ^177Lu-TEFAPI-07 for an ex vivo biodistribution study. The mice were killed at 24 h and 96 h after injection, the counts of the different organs were measured with a γ-counter, and the data were normalized to percentage injected dose (%ID)/g using 1% of total counts.

[4] = system: pancreatic cancer PDX tumors; assay: Radiotherapy study in pancreatic cancer PDX-bearing mice (tumor growth); assay type: in vivo; conditions: 1.85 MBq or 3.7 MBq, vs saline or 3.7 MBq ^177Lu-FAPI-04
Description: (§1) ^68Ga-FAPI-04 PET imaging was performed to evaluate the tumor volume, and the mice were treated when their average tumor volume reached 35 mm^3. The PDX-bearing mice (6 groups, 7–9 mice per group) were treated by saline, 3.7 MBq of ^177Lu-FAPI-04, 1.85 MBq of ^177Lu-TEFAPI-06, 3.7 MBq of ^177Lu-TEFAPI-06, 1.85 MBq of ^177Lu-TEFAPI-07, or […] of ^177Lu-TEFAPI-07. Tumor volume and body weight were monitored every 2 or 3 d, and the animals were euthanized when the tumor volume exceeded 1,000 mm^3. Histopathologic staining was performed with an antihuman FAP monoclonal antibody (ab207178; Abcam), and hematoxylin and eosin staining was performed as previously described ([29]).

[5] = Radiotherapy study: body weight and hematoxylin and eosin staining of main organs; assay type: in vivo; conditions: pancreatic cancer PDX-bearing mice after treatment
Description: as §1

| Compound | radiochemistry purity after incubation in human serum [1] | radiochemistry purity after incubation in saline [1] | tumor uptake at 6 d after injection (SPECT imaging and biodistribution) [2] | tumor-to-nontargeted-tissue signal ratios on SPECT [2] | Blood uptake ([3]; 24 h after injection) [%ID/g] | Bone uptake ([3]; 24 h after injection) [%ID/g] | Brain uptake ([3]; 24 h after injection) [%ID/g] | Fat uptake ([3]; 24 h after injection) [%ID/g] | Heart uptake ([3]; 24 h after injection) [%ID/g] | Kidney uptake ([3]; 24 h after injection) [%ID/g] | Large intestine uptake ([3]; 24 h after injection) [%ID/g] | Liver uptake ([3]; 24 h after injection) [%ID/g] | Lung uptake ([3]; 24 h after injection) [%ID/g] | Muscle uptake ([3]; 24 h after injection) [%ID/g] | Pancreas uptake ([3]; 24 h after injection) [%ID/g] | Small intestine uptake ([3]; 24 h after injection) [%ID/g] | Spleen uptake ([3]; 24 h after injection) [%ID/g] | Stomach uptake ([3]; 24 h after injection) [%ID/g] | Tumor uptake ([3]; 24 h after injection) [%ID/g] | tumor-to-liver ratio ([3]; 24 h after injection) | other results |
| --- | --- | --- | --- | --- | --- | --- | --- | --- | --- | --- | --- | --- | --- | --- | --- | --- | --- | --- | --- | --- | --- |
| N#C[C@@H]1CC(F)(F)CN1C(=O)CNC(=O)c1ccnc2ccc(OCCCN3CCN(C(=O)[C@H](CCCCNC(=O)CN4CCN(CC(=O)[O-])CCN(CC(=O)[O-])CCN(CC(=O)[O-])CC4)NC(=O)CCCC(=O)N[C@@H](CCCCNC(=O)CCCc4ccc(I)cc4)C(=O)O)CC3)cc12.[177Lu+3] [^177Lu-TEFAPI-06] | over 90% | over 90% | still notable | high | 12.32 | 1.32 | 0.37 | 1.86 | 3.70 | 3.20 | 1.66 | 2.98 | 4.33 | 1.09 | 2.01 | 2.55 | 3.00 | 1.75 | 8.68 | 2.91 | Blood uptake ([3]; 96 h after injection): 2.25 %ID/g; Bone uptake ([3]; 96 h after injection): 0.35 %ID/g; Brain uptake ([3]; 96 h after injection): 0.09 %ID/g; Fat uptake ([3]; 96 h after injection): 1.55 %ID/g; Heart uptake ([3]; 96 h after injection): 1.51 %ID/g; Kidney uptake ([3]; 96 h after injection): 2.66 %ID/g; Large intestine uptake ([3]; 96 h after injection): 0.53 %ID/g; Liver uptake ([3]; 96 h after injection): 1.74 %ID/g; Lung uptake ([3]; 96 h after injection): 1.95 %ID/g; Muscle uptake ([3]; 96 h after injection): 0.45 %ID/g; Pancreas uptake ([3]; 96 h after injection): 0.75 %ID/g; Small intestine uptake ([3]; 96 h after injection): 0.61 %ID/g; Spleen uptake ([3]; 96 h after injection): 3.66 %ID/g; Stomach uptake ([3]; 96 h after injection): 0.54 %ID/g; Tumor uptake ([3]; 96 h after injection): 7.33 %ID/g; tumor-to-liver ratio ([3]; 96 h after injection): 4.21; tumor growth after treatment [4]: remarkable suppression of tumor growth; side effects, hematoxylin and eosin staining of the main organs [5]: almost negligible |
| Cc1cc(-c2ccc(NC(=O)CCCC(=O)N[C@@H](CCCCNC(=O)CN3CCN(CC(=O)[O-])CCN(CC(=O)[O-])CCN(CC(=O)[O-])CC3)C(=O)N3CCN(CCCOc4ccc5nccc(C(=O)NCC(=O)N6CC(F)(F)C[C@H]6C#N)c5c4)CC3)c(C)c2)ccc1N=Nc1ccc2c(S(=O)(=O)O)cc(S(=O)(=O)O)c(N)c2c1O.[177Lu+3] [^177Lu-TEFAPI-07] | over 90% | over 90% | still notable | high | 5.64 | 1.71 | 0.23 | 1.82 | 2.53 | 8.67 | 1.15 | 3.21 | 2.58 | 1.00 | 2.16 | 1.19 | 2.69 | 1.20 | 7.87 | 2.45 | Blood uptake ([3]; 96 h after injection): 0.51 %ID/g; Bone uptake ([3]; 96 h after injection): 0.18 %ID/g; Fat uptake ([3]; 96 h after injection): 0.48 %ID/g; Heart uptake ([3]; 96 h after injection): 0.62 %ID/g; Kidney uptake ([3]; 96 h after injection): 10.16 %ID/g; Large intestine uptake ([3]; 96 h after injection): 0.10 %ID/g; Liver uptake ([3]; 96 h after injection): 2.31 %ID/g; Lung uptake ([3]; 96 h after injection): 0.73 %ID/g; Muscle uptake ([3]; 96 h after injection): 0.28 %ID/g; Pancreas uptake ([3]; 96 h after injection): 0.53 %ID/g; Small intestine uptake ([3]; 96 h after injection): 0.16 %ID/g; Spleen uptake ([3]; 96 h after injection): 1.88 %ID/g; Stomach uptake ([3]; 96 h after injection): 0.29 %ID/g; Tumor uptake ([3]; 96 h after injection): 7.57 %ID/g; tumor-to-liver ratio ([3]; 96 h after injection): 3.28; tumor growth after treatment [4]: remarkable suppression of tumor growth; side effects, hematoxylin and eosin staining of the main organs [5]: almost negligible |
